Experimental findings from patent US7052850B2, “Isolated human EDG-4 receptor” (priority 1997, dated 2006) are described below.

“Also recorded” adds a separate entry of the source.

Assay [1] relates to pcDNA3-transfected 293-EBNA cells. In words: SRE luciferase reporter in 293-EBNA cells, empty vector pcDNA3. Format: cell-based. The conditions noted are these: for SRE reporter response: Assay 3, 3 μM. As to the method: The protocol described in Example 11 for Assay 1 was allowed except for the following changes: • 1) 100 mm plates of 293-EBNA ith a confluency of ˜80% were used for transfection, • 2) SRE Cotransfection: 0.5 μg of 2XSREtk-p4Luc-zeo reporter DNA and 3.5 μg pcDNA3, EDG-1, EDG-3 pC3-hE3P2, different from the clone used in Assay 2 of Example 11) or the newly cloned human EDG-4 (pC3-hedg4#36); NF-κB Cotransfection: 2 μg 6XNFκBtk-p4LUc-zeo reporter DNA and 2.0 μg pcDNA3, EDG-1, EDG-3 (pC3-hE3HP2), or EDG-4 (pC3-hedg4#36). Expression plasmid and reporter plasmid DNA samples were combined and diluted in 750 μl of DMEM/F12 (serum free media) and 20 μl Plus Reagent (Lipofectamine Plus Kit, Life Technologies Cat. 109640-13), and incubated at room temperature for 15 min. • 3) 30 μl Lipofectamine Reagent (Lipofectamine Plus Kit) was diluted in 750 μl DMEM/F12. The diluted Lipofectamine was then combined with the DNA/Plus mixture and incubated at room temperature for 15 min. • 4) The 293-EBNA plates were washed once with PBS and 5 ml DMEM/F12 was added to each plate. • 5) DNA/Plus/Lipofectamine mixture was added to each plate of 293-EBNA cells. The plates were left for 3 hr at 37° C. in a 5% CO2 incubator. • 6) The transfection medium was replaced with serum-free DMEM/F12 for cells transfected with 2XSREtk-p4Luc-zeo reporter DNA and with DMEM/F12 plus 10% FBS for cells transfected with 6XNFκBtk-p4Luc-zeo reporter DNA. • Day 2. • 2) Transfected cells were harvested by trypsinization and 50,000 cells per well were plated in 96-well Blackview plates coated with poly D-lysine Becton Dickinson Labware, Cat. 40640). No cells were plated in the outside wells of the 96-well plate. • Day 3. • 1) Media for cells transfected with 6XNF-κBtk-p4Luc-zeo reporter DNA was replaced with DMEM/F12 plus 0.5% FBS. • Day 4. • 1) Media was removed and cells treated with compounds diluted in DMEM/F12 media. The following treatments were used for all transfections:
Transfection was accomplished using the Lipofectamine Plus kit (Life Technologies, Cat. 10964-013), using the manufacturer's recommended conditions. Optimal SRE induction was seen when cells were seeded so as to become 100% confluent at the time of treatment, 72–96 hr after transfection.
293-EBNA cells were grown, lipofected in monolayer cultures, and pretreated as described above for Example 11, assay #1, except that NF-κB and AP-1 reporter-transfected cells were preteated for 6 hr in medium containing 0.5% […], then treated overnight in the same medium with or without 10 μM LPA.
In general terms: A reporter such as luciferase makes a cellular process visible.

A further assay deals with human EDG-3 (Homo sapiens, UniProt Q99500). In words: SRE luciferase reporter in 293-EBNA cells, human EDG-3. It counts as cell-based. The conditions noted are these: Assay 3; pancreas clone pC3-E3HP2; 3 μM.
In assay [2] the target is T1, human EDG-4 (Homo sapiens, UniProt O95136, F273L/I205V).
T1 construct: a 1059 bp open reading frame (excluding the stop codon) corresponding to the complete human edg-4 coding region; expressed in transfected cells; host or cells: 293-EBNA
Kind of assay: Relative potency and efficacy of agonists, luciferase (SRE) reporter in 293-EBNA cells expressing recombinant human EDG-4. It counts as cell-based. The note with it: for Rank (EMax): rank of efficacy. As to the method: Transfection of EDG-4, expression, pretreatment and treatment of 293-EBNA cells expressing recombinant human EDG-4 was carried out essentially as described in “Example 11. […] Results were tabulated in Microsoft Excel, and analyzed with GraphPad Prism sotfware. […] The luciferase response was expressed as fold response, after subtracting any endogenous response in pcDNA3-transfected cells at a given concentration of compound.

In the next assay the test system is 293-EBNA cells. In words: IL-8 production in 293-EBNA cells. It counts as cell-based. The conditions noted are these: untransfected.
For assay [3], the target named is T1, human EDG-4. In words: NF-κB luciferase reporter in 293-EBNA cells, human EDG-4. It counts as cell-based. The conditions noted are these: Assay 3; pC3-hedg4#36; 3 μM; 6 hours.
Procedure: (§1) The protocol described in Example 11 for Assay 1 was allowed except for the following changes: • 1) 100 mm plates of 293-EBNA ith a confluency of ˜80% were used for transfection, • 2) SRE Cotransfection: 0.5 μg of 2XSREtk-p4Luc-zeo reporter DNA and 3.5 μg pcDNA3, EDG-1, EDG-3 pC3-hE3P2, different from the clone used in Assay 2 of Example 11) or the newly cloned human EDG-4 (pC3-hedg4#36); NF-κB Cotransfection: 2 μg 6XNFκBtk-p4LUc-zeo reporter DNA and 2.0 μg pcDNA3, EDG-1, EDG-3 (pC3-hE3HP2), or EDG-4 (pC3-hedg4#36). Expression plasmid and reporter plasmid DNA samples were combined and diluted in 750 μl of DMEM/F12 (serum free media) and 20 μl Plus Reagent (Lipofectamine Plus Kit, Life Technologies Cat. 109640-13), and incubated at room temperature for 15 min. • 3) 30 μl Lipofectamine Reagent (Lipofectamine Plus Kit) was diluted in 750 μl DMEM/F12. The diluted Lipofectamine was then combined with the DNA/Plus mixture and incubated at room temperature for 15 min. • 4) The 293-EBNA plates were washed once with PBS and 5 ml DMEM/F12 was added to each plate. • 5) DNA/Plus/Lipofectamine mixture was added to each plate of 293-EBNA cells. […]
Another assay relates to HL-60 cells. In words: IL-8 response in HL-60 cells. Format: cell-based, human. The conditions noted are these: 1, 6 or 24 hours, S1P or LPA up to 3 μM, TNF-α 10 ng/ml.
The test system of the next assay is HeLa cells. Kind of assay: IL-8 response (IL-8 ELISA) in HeLa cells. Format: cell-based, human. As to the method: • Cells: HeLa (adenocarcinoma, human) • Media: DMEM/F12+10% FBS Adherent • 1) Cells were seeded at 0.2×10^6 cells/well in 6-well plates. • 2) Confluency of cells after 24–32 hrs was between 60–70%. B. Overnight Serum-Starvation • 1) Media was aspirated (no PBS wash). • 2) 1.5 ml 0.5% FBS media was added to each well. C. Treatments and Collection • 1) Made up all required solutions in 0.5% FBS media (control). Handling of […] for use in NF-κB experiments requires that sonication, commonly used to resuspend LPA, not be done; NF-κB may be activated by lipid peroxides created through vigorous frothing. Solutions:
D. Detection of Interleukin-8 (IL-8) using an IL-8 ELISA (Enzyme-Linked ImmunoSorbent Assay). • 1) The Quantikine Human IL-8 Immuno Assay Kit was obtained from R&D Systems (Cat. D8050). • 2) The kit and all samples were allowed to equlibrate to room temperature prior to use. • 3) All reagents were provided in the kit and prepared according to the instructions provided. • 4) The assay procedure was followed as recommended in the kit for cell culture supernatant samples. • 5) ELISA was performed on 50 μl samples of culture supernatant and duplicate samples were measured for each well. Each treatment was performed on triplicate wells. • 6) Plates were read on UV max kinetic microplate reader (Molecular Devices), set to 450 nm and correction set to 575 nm, using Wsoftmax sotware version 2.34.
• 1) Cells were seeded at 2.5×10^4 cells/well in 24-well plates. • 2) Confluency of cells after 24–32 hrs was between 60–70%. B. Overnight Serum-Starvation and PTX Pre-Treatment • 1) Media was aspirated (no PBS wash). • 2) 0.5 ml 0.5% FBS media was added to all wells not requiring PTX pre-treatment. • 3) For well requiring PTX; 0.5 ml 0.5% FBS media containing 50 ng/ml PTX (1 volume PTX (RBI Cat. P140): 1 volume DTT, incubate 37° C. for 30 minutes then dilute to 50 ng/ml) was added. C. Treatments and Collection • 1) Made up all required solutions in 0.5% FBS media (control). […] D. Refer to Procedure #1 For HeLa Cells (D).
(In general: In an ELISA, binding on a coated surface is turned into a signal by an enzyme label.)

T1 sequence (O95136 whole entry I205V/F273L): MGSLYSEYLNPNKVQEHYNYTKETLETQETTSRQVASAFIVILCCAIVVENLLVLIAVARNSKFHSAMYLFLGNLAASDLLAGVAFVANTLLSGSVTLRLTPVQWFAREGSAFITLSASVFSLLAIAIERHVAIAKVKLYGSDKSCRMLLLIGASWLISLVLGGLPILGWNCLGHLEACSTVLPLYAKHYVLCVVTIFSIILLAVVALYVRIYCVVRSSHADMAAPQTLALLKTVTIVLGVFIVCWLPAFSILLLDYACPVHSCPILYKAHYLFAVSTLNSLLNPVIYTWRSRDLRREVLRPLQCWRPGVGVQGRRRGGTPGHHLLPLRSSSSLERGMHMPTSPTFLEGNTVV
Sequence of human EDG-3 (Q99500 whole entry): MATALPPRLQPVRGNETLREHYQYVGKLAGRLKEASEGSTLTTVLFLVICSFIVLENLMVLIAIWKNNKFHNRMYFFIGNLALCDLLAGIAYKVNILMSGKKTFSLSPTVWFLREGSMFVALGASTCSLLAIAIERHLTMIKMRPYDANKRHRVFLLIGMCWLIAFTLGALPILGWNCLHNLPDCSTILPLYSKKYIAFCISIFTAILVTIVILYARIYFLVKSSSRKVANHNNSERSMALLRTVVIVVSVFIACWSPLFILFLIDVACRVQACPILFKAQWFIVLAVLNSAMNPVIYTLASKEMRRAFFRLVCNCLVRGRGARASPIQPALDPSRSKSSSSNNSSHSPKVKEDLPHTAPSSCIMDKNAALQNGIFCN
Procedure for human EDG-3: as §1

Consider `CCCCCCCCCCCCC/C=C/[C@@H](O)[C@@H](N)COP(=O)(O)O` [S1P, sphingosine 1-phosphate], for which the SRE reporter response entry in assay [1] (pcDNA3 control) was “about 1.5 fold”. This compound displayed an SRE reporter response at human EDG-3 of 12 fold. For the same compound, on human EDG-4 [2], the “agonist character at EDG-4” value is “full agonists” and the “Rank (EMax)” value was 2. Besides, at human EDG-4 [2] (293-EBNA, relative efficacy, read-out: EMax (Percent)), the Emax (as a rule, the greatest response seen or fitted, relative to the assay's reference) stood at 86.7%. Also, the IL-8 production result in the assay with 293-EBNA cells was “no IL-8 production”. In addition, on human EDG-4 [3], the “induction of the NF-κB reporter gene” value is 4.5 fold. For the same compound, the IL-8 release result in the assay on HL-60 cells is recorded as “no such release; also recorded: fail to produce IL-8 below the cytotoxic threshold”.

In the case of `CCCCCCCCCCCCC/C=C/[C@@H](O)[C@@H](N)COP(=O)([O-])OCC[N+](C)(C)C` [SPC, sphingosylphosphorylcholine], the IL-8 induction entry in the assay on HeLa cells (6 hours, concentration series) is on record as “can induce IL-8 in HeLa cells in a concentration-dependent manner; also recorded: significantly induced IL-8 production”. Also, the SRE reporter response entry in assay [1] (pcDNA3 control) is on record as “not”. Moreover, the “induction of the SRE reporter” value in assay [1] (Example 15A, pcDNA3 control, 3 μM SPC, 6 hr) is given as “about 2.5 fold”. The compound further gave an SRE reporter response on human EDG-3 of 11 fold. For the same compound, at human EDG-4 [2], the “agonist character at EDG-4” value is recorded as “full agonists” and the “Rank (EMax)” value was found to be 1. Besides, the “EMax (Percent)” value at human EDG-4 [2] (relative efficacy) came out at 100%. At human EDG-4 [3], the “induction of the NF-κB reporter gene” value is 9 fold.

As to lysophosphatidic acid [LPA], in the assay on HeLa cells (1 and 10 μM, 1, 6 or 24 hours), the IL-8 response entry is listed as “not”. Also, the “endogenous SRE reporter response vs untreated control cells” value in assay [1] (pcDNA3, 10 μM LPA) is reported as “about 1.5 fold”. Moreover, in the assay on 293-EBNA cells, the IL-8 production entry is listed as “no IL-8 production”. Further, in the assay with HL-60 cells, the IL-8 release result was “no such release”.
